Measured values as given in US6737383B1, “Herbicidal oxadiazolidines” (priority 1999, dated 2004).

Tests used:
giant foxtail = test: Test B pre/postemergence giant foxtail; type: in vivo, Setaria faberii
Summary of the method: (§1)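 Test chemicals in a non-phytotoxic solvent mixture with surfactant were sprayed preemergence onto planted seeds and postemergence onto plants 2 to 18 cm tall (1- to 4-leaf stage). After twelve to sixteen days in a greenhouse, injury was visually rated against untreated controls from 0 (no effect) to 10 (complete control).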

blackgrass = test: Test B pre/postemergence blackgrass; type: in vivo, Alopecurus myosuroides
Summary of the method: as §1

surinam grass = test: Test B pre/postemergence surinam grass; type: in vivo, Brachiaria decumbens
Summary of the method: as §1

rice = test: Test B flood test rice; type: in vivo, Oryza sativa
Summary of the method: (§2)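 Flood test on plants grown to the 2-leaf stage; treated plants kept in greenhouse twelve to sixteen days, then visually rated against controls on a 0 (no effect) to 10 (complete control) scale.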

rape = test: Test B pre/postemergence rape; type: in vivo, Brassica napus
Summary of the method: as §1

sugar beet = test: Test B pre/postemergence sugar beet; type: in vivo, Beta vulgaris
Summary of the method: as §1

duck salad = test: Test B flood test duck salad; type: in vivo, Heteranthera limosa
Summary of the method: as §2

wild oat = test: Test B pre/postemergence wild oat; type: in vivo, Avena fatua
Summary of the method: as §1

velvetleaf = test: Test B pre/postemergence velvetleaf; type: in vivo, Abutilon theophrasti
Summary of the method: as §1

smallflower flatsedge = test: Test B flood test smallflower flatsedge; type: in vivo, Cyperus difformis
Summary of the method: as §2

wheat = test: Test B pre/postemergence wheat; type: in vivo, Triticum aestivum
Summary of the method: as §1

purple nutsedge = test: Test B pre/postemergence purple nutsedge; type: in vivo, Cyperus rotundus
Summary of the method: as §1

bamyardgrass = test: Test B flood test barnyardgrass; type: in vivo, Echinochloa crus-galli
Summary of the method: as §2

bedstraw = test: Test B pre/postemergence bedstraw; type: in vivo, Galium aparine
Summary of the method: as §1

corn = test: Test B pre/postemergence corn; type: in vivo, Zea mays
Summary of the method: as §1

crabgrass = test: Test B pre/postemergence crabgrass; type: in vivo, Digitaria sanguinalis
Summary of the method: as §1

[1] = Postemergence, Rate 125 g/ha, scale of 0 to 10 where 0 is no effect and 10 is complete control
[2] = Preemergence, Rate 62 g/ha, scale of 0 to 10 where 0 is no effect and 10 is complete control
[3] = Preemergence, Rate 125 g/ha, 0 is no effect, 10 is complete control
[4] = Preemergence, Rate 250 g/ha, scale 0 to 10, 0 is no effect, 10 is complete control
[5] = Preemergence, Rate 500 g/ha, scale 0 to 10 (0 no effect, 10 complete control)
[6] = Rate 62 g/ha, Postemergence, scale of 0 to 10 where 0 is no effect and 10 is complete control
[7] = Rate 250 g/ha, Postemergence, scale 0 to 10, 0 is no effect, 10 is complete control
[8] = Rate 500 g/ha, Postemergence, scale 0 to 10
[9] = Postemergence (flood test species), Rate 125 g/ha, scale of 0 to 10 where 0 is no effect and 10 is complete control
[10] = Rate 62 g/ha, Postemergence section, flood test species, scale of 0 to 10 where 0 is no effect and 10 is complete control
[11] = Rate 250 g/ha, Postemergence (flood test), scale 0 to 10, 0 is no effect, 10 is complete control
[12] = Rate 500 g/ha, listed under Postemergence (flood test species), scale 0 to 10

Cc1nsc(C)c1-n1c(=O)on(C(=O)N(c2ccc(F)cc2F)C(C)C)c1=O [Compound 158]
7: Giant foxtail plant response rating (giant foxtail; [4]) | Crabgrass plant response rating (crabgrass; [5])
2: Plant response rating, Blackgrass (blackgrass; [7]) | Wild oats plant response rating (wild oat; [5]) | Corn plant response rating (corn; [4]) | Corn plant response rating (corn; [5])
0: Giant foxtail plant response rating (giant foxtail; [1]) | Giant foxtail plant response rating (giant foxtail; [6]) | Blackgrass plant response rating (blackgrass; [2]) | Blackgrass plant response rating (0 to 10 scale) (blackgrass; [3]) | B. signalgrass plant response rating (surinam grass; [1]) | B. signalgrass plant response rating (surinam grass; [2]) | B. signalgrass plant response rating (0 to 10 scale) (surinam grass; [3]) | B. signalgrass plant response rating (surinam grass; [4]) | B. signalgrass plant response rating (surinam grass; [5]) | B. signalgrass plant response rating (surinam grass; [6]) | Plant response rating, B. signalgrass (surinam grass; [7]) | B. signalgrass plant response rating (surinam grass; Rate 500 g/ha, Postemergence, scale 0 to 10, 0 no effect, 10 complete control) | Rice plant response rating (rice; [9]) | Rice plant response rating (rice; [10]) | Plant response rating, Rice (rice; [11]) | Rice plant response rating (rice; [12]) | Rape plant response rating (rape; [1]) | Rape plant response rating (rape; [2]) | Rape plant response rating (0 to 10 scale) (rape; [3]) | Rape plant response rating (rape; [4]) | Rape plant response rating (rape; [5]) | Rape plant response rating (rape; [6]) | Plant response rating, Rape (rape; [7]) | Rape plant response rating (rape; [8]) | Sugarbeets plant response rating (sugar beet; [1]) | Sugarbeets plant response rating (sugar beet; [2]) | Sugarbeets plant response rating (0 to 10 scale) (sugar beet; [3]) | Sugarbeets plant response rating (sugar beet; [4]) | Sugarbeets plant response rating (sugar beet; [5]) | Sugarbeets plant response rating (sugar beet; [6]) | Plant response rating, Sugarbeets (sugar beet; [7]) | Sugarbeets plant response rating (sugar beet; [8]) | Ducksalad plant response rating (duck salad; [9]) | Ducksalad plant response rating (duck salad; [10]) | Plant response rating, Ducksalad (duck salad; [11]) | Ducksalad plant response rating (duck salad; [12]) | Wild oats plant response rating (wild oat; [2]) | Wild oats plant response rating (0 to 10 scale) (wild oat; [3]) | Wild oats plant response rating (wild oat; [4]) | Plant response rating, Wild oats (wild oat; [7]) | Wild oats plant response rating (wild oat; [8]) | Velvetleaf plant response rating (velvetleaf; [2]) | Velvetleaf plant response rating (0 to 10 scale) (velvetleaf; [3]) | Velvetleaf plant response rating (velvetleaf; [4]) | Velvetleaf plant response rating (velvetleaf; [5]) | Plant response rating, Velvetleaf (velvetleaf; [7]) | Velvetleaf plant response rating (velvetleaf; [8]) | S. Flatsedge plant response rating (smallflower flatsedge; [9]) | S. Flatsedge plant response rating (smallflower flatsedge; [10]) | Plant response rating, S. Flatsedge (smallflower flatsedge; [11]) | S. Flatsedge plant response rating (smallflower flatsedge; [12]) | Wheat plant response rating (wheat; [2]) | Wheat plant response rating (0 to 10 scale) (wheat; [3]) | Wheat plant response rating (wheat; [4]) | Wheat plant response rating (wheat; [5]) | Plant response rating, Wheat (wheat; [7]) | Wheat plant response rating (wheat; [8]) | Nutsedge plant response rating (purple nutsedge; [1]) | Nutsedge plant response rating (purple nutsedge; [2]) | Nutsedge plant response rating (0 to 10 scale) (purple nutsedge; [3]) | Nutsedge plant response rating (purple nutsedge; [4]) | Nutsedge plant response rating (purple nutsedge; [5]) | Nutsedge plant response rating (purple nutsedge; [6]) | Plant response rating, Nutsedge (purple nutsedge; [7]) | Nutsedge plant response rating (purple nutsedge; [8]) | Barnyardgrass plant response rating (bamyardgrass; [9]) | Barnyardgrass plant response rating (bamyardgrass; [10]) | Plant response rating, Barnyardgrass (bamyardgrass; [11]) | Barnyardgrass plant response rating (bamyardgrass; [12]) | Bedstraw plant response rating (bedstraw; [1]) | Bedstraw plant response rating (bedstraw; [2]) | Bedstraw plant response rating (0 to 10 scale) (bedstraw; [3]) | Bedstraw plant response rating (bedstraw; [4]) | Bedstraw plant response rating (bedstraw; [5]) | Bedstraw plant response rating (bedstraw; [6]) | Plant response rating, Bedstraw (bedstraw; [7]) | Corn plant response rating (corn; [1]) | Corn plant response rating (corn; [2]) | Corn plant response rating (0 to 10 scale) (corn; [3]) | Corn plant response rating (corn; [6]) | Plant response rating, Corn (corn; [7]) | Corn plant response rating (corn; [8]) | Crabgrass plant response rating (crabgrass; [1]) | Crabgrass plant response rating (crabgrass; [6])
8: Giant foxtail plant response rating (giant foxtail; [5])
4: Giant foxtail plant response rating (0 to 10 scale) (giant foxtail; [3]) | Plant response rating, Giant foxtail (giant foxtail; [7]) | Crabgrass plant response rating (crabgrass; [4]) | Crabgrass plant response rating (crabgrass; [8])
5: Giant foxtail plant response rating (giant foxtail; [8]) | Blackgrass plant response rating (blackgrass; [8])
3: Giant foxtail plant response rating (giant foxtail; [2]) | Blackgrass plant response rating (blackgrass; [5]) | Crabgrass plant response rating (crabgrass; [2]) | Crabgrass plant response rating (0 to 10 scale) (crabgrass; [3]) | Plant response rating, Crabgrass (crabgrass; [7])
1: Blackgrass plant response rating (blackgrass; [1]) | Blackgrass plant response rating (blackgrass; [6])
